Assay results published in US20110034429A1, “5a-ANDROSTANE-3,6,17-TRIONE (KNELLER'S TRIONE) AND METHODS OF USE THEREFOR” (priority 2009, published 2011).

Tests used:
[1] = Pilot study: oral daily Kneller's Trione in men, plasma sex hormone profile; assay type: in vivo, human; conditions: for change of testosterone-to-estradiol ratio: 14 days, ending vs starting ratio; for TOTAL TESTOSTERONE / ESTRADIOL / DHT: person
Description: The first study subject was a person who was dosed once per day orally with 25 mg per day of Kneller's Trione.
The second study subject was a person who was dosed once per day orally with 50 mg per day of Kneller's Trione.
The third study subject was a person who was dosed once per day orally with 100 mg per day of Kneller's Trione.

[2] = Pilot study: adverse events and safety observations in study subjects; assay type: in vivo, human

C[C@]12CCC(=O)C[C@@H]1C(=O)C[C@@H]1[C@@H]2CC[C@]2(C)C(=O)CC[C@@H]12 [Kneller's Trione, 5α-androstane-3,6,17-trione]
change of testosterone-to-estradiol ratio ([1]; 25 mg daily oral): 130%
change of testosterone-to-estradiol ratio ([1]; 50 mg daily oral): 28%
effect on bioavailable testosterone level ([1]; 250 mg per day oral): raised
effect on total testosterone level ([1]; 250 mg per day oral): raised
effect on bioavailable testosterone level ([1]; 500 mg per day oral): raised
effect on total testosterone level ([1]; 500 mg per day oral): raised
added benefits with high dosage ([1]; 750 mg per day oral): no added benefits were seen
changes in plasma estradiol levels in men ([1]; general statement): no changes outside the accepted normal limits
effect on plasma testosterone levels in men ([1]; general statement): substantial and significant increases
increase of plasma free testosterone levels ([1]; oral administration): more than 100%
TOTAL TESTOSTERONE ([1]; 25 mg per day oral, single dose, DAY 7 (baseline 6,290 pg/mL)): 6,400 pg/mL
ESTRADIOL ([1]; 25 mg per day oral, DAY 7 (baseline 47 pg/mL)): 28 pg/mL
DHT ([1]; 25 mg per day oral, DAY 7 (baseline 42 ng/dL)): 36 ng/dL
ESTRADIOL ([1]; 25 mg per day oral, DAY 14 (baseline 47 pg/mL)): 23 pg/mL
DHT ([1]; 25 mg per day oral, DAY 14 (baseline 42 ng/dL)): 49 ng/dL
TOTAL TESTOSTERONE ([1]; 50 mg per day oral, single dose, DAY 7 (baseline 8,570 pg/mL)): 11,000 pg/mL
ESTRADIOL ([1]; 50 mg per day oral, DAY 7 (baseline 36 pg/mL)): 35 pg/mL
DHT ([1]; 50 mg per day oral, DAY 7 (baseline 47 ng/dL)): 46 ng/dL
ESTRADIOL ([1]; 50 mg per day oral, DAY 14 (baseline 36 pg/mL)): 36 pg/mL
TOTAL TESTOSTERONE ([1]; 50 mg per day oral, DAY 14 (baseline 8,570 pg/mL)): 11,000 pg/mL
DHT ([1]; 50 mg per day oral, DAY 14 (baseline 47 ng/dL)): 49 ng/dL
ESTRADIOL ([1]; 100 mg per day oral, DAY 7 (baseline 46 pg/mL)): 44 pg/mL
DHT ([1]; 100 mg per day oral, DAY 7 (baseline 35 ng/dL)): 48 ng/dL
ESTRADIOL ([1]; 100 mg per day oral, DAY 14 (baseline 46 pg/mL)): 34 pg/mL
DHT ([1]; 100 mg per day oral, DAY 14 (baseline 35 ng/dL)): 41 ng/dL
adverse event causing the subject to withdraw ([2]; 750 mg per day oral): priaprism
other adverse events noted by any study subject ([2]; oral daily dosages 25 mg to 750 mg): No other adverse events
